System: 299254-011-R-J1-PDC complex spheroid viability
Assay: Anticancer human tumor 299254-011-R-J1-PDC patient-derived melanoma cell line growth inhibition [POLQ]
Conditions: for IC50: curve of first compound; for viability, T/C: stronger effect = lower value
Procedure, shortened: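 PDC + HUVEC + MSC complex spheroids; POLQ inhibitors ± partner drugs; top conc. at/near clinical Cmax, else 10 microM (SN-38 1 microM), half-log dilutions; 37 degrees C, 5% CO2.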

[1] = second compound 0.0316 µM, first compound 0.00316 µM
[2] = second compound 0.0316 µM, first compound 0.01 µM
[3] = second compound 0.0316 µM, first compound 0.0316 µM
[4] = second compound 0.0316 µM, first compound 0.1 µM
[5] = second compound 0.1 µM, first compound 0.00316 µM
[6] = second compound 0.1 µM, first compound 0.01 µM
[7] = second compound 0.1 µM, first compound 0.0316 µM
[8] = second compound 0.1 µM, first compound 0.1 µM
[9] = second compound 0.316 µM, first compound 0.00316 µM
[10] = second compound 0.316 µM, first compound 0.01 µM
[11] = second compound 0.316 µM, first compound 0.0316 µM
[12] = second compound 0.316 µM, first compound 0.1 µM
[13] = second compound 1 µM, first compound 0.00316 µM
[14] = second compound 1 µM, first compound 0.01 µM
[15] = second compound 1 µM, first compound 0.0316 µM
[16] = second compound 1 µM, first compound 0.1 µM
[17] = second compound 3.16 µM, first compound 0.00316 µM
[18] = second compound 3.16 µM, first compound 0.01 µM
[19] = second compound 3.16 µM, first compound 0.0316 µM
[20] = second compound 3.16 µM, first compound 0.1 µM
[21] = second compound 10 µM, first compound 0.00316 µM
[22] = second compound 10 µM, first compound 0.01 µM
[23] = second compound 10 µM, first compound 0.0316 µM
[24] = second compound 10 µM, first compound 0.1 µM
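Also: spheroids exposed to drugs for one week before measurement.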
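For viability, T/C in this document: percent viability relative to DMSO vehicle control taken as 100%.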

Cn1ncnc1[C@H]1c2n[nH]c(=O)c3cc(F)cc(c23)N[C@@H]1c1ccc(F)cc1 + Nc1ccc(C#CCN(C(=O)Cc2ncc(C(F)(F)F)cc2C(F)(F)F)c2ccc(F)cc2)nn1
IC50 (second compound 0.0316 µM): > 100 nM | IC50 (second compound 0.1 µM): > 100 nM | IC50 (second compound 0.316 µM): > 100 nM | IC50 (second compound 1 µM): > 100 nM | IC50 (second compound 3.16 µM): > 100 nM | IC50 (second compound 10 µM): > 100 nM | viability, T/C (second compound 0.0316 µM, first compound 0.000316 µM): 107% | viability, T/C (second compound 0.0316 µM, first compound 0.001 µM): 101% | viability, T/C [1]: 97.2% | viability, T/C [2]: 98.6% | viability, T/C [3]: 99.9% | viability, T/C [4]: 108% | viability, T/C (second compound 0.1 µM, first compound 0.000316 µM): 115% | viability, T/C (second compound 0.1 µM, first compound 0.001 µM): 94% | viability, T/C [5]: 111% | viability, T/C [6]: 95.5% | viability, T/C [7]: 107% | viability, T/C [8]: 101% | viability, T/C (second compound 0.316 µM, first compound 0.000316 µM): 107% | viability, T/C (second compound 0.316 µM, first compound 0.001 µM): 113% | viability, T/C [9]: 95.1% | viability, T/C [10]: 113% | viability, T/C [11]: 125% | viability, T/C [12]: 89.9% | viability, T/C (second compound 1 µM, first compound 0.000316 µM): 107% | viability, T/C (second compound 1 µM, first compound 0.001 µM): 106% | viability, T/C [13]: 102% | viability, T/C [14]: 107% | viability, T/C [15]: 102% | viability, T/C [16]: 113% | viability, T/C (second compound 3.16 µM, first compound 0.000316 µM): 103% | viability, T/C (second compound 3.16 µM, first compound 0.001 µM): 103% | viability, T/C [17]: 94.4% | viability, T/C [18]: 105% | viability, T/C [19]: 98.2% | viability, T/C [20]: 105% | viability, T/C (second compound 10 µM, first compound 0.000316 µM): 96.3% | viability, T/C (second compound 10 µM, first compound 0.001 µM): 93.3% | viability, T/C [21]: 88.1% | viability, T/C [22]: 102% | viability, T/C [23]: 87.2% | viability, T/C [24]: 90.7%

C=CCn1c(=O)c2cnc(Nc3ccc(N4CCN(C)CC4)cc3)nc2n1-c1cccc(C(C)(C)O)n1 + COC1C(OC(N)=O)C(O)C(Oc2ccc3c(O)c(NC(=O)c4ccc(O)c(CC=C(C)C)c4)c(=O)oc3c2C)OC1(C)C
IC50 (second compound 0.0316 µM): > 1000 nM | IC50 (second compound 0.1 µM): > 1000 nM | IC50 (second compound 0.316 µM): > 1000 nM | IC50 (second compound 1 µM): > 1000 nM | IC50 (second compound 3.16 µM): > 1000 nM | IC50 (second compound 10 µM): > 1000 nM | viability, T/C [1]: 89.1% | viability, T/C [2]: 99.6% | viability, T/C [3]: 99.6% | viability, T/C [4]: 112% | viability, T/C (second compound 0.0316 µM, first compound 0.316 µM): 95.1% | viability, T/C (second compound 0.0316 µM, first compound 1 µM): 74.4% | viability, T/C [5]: 116% | viability, T/C [6]: 97.7% | viability, T/C [7]: 127% | viability, T/C [8]: 122% | viability, T/C (second compound 0.1 µM, first compound 0.316 µM): 87.5% | viability, T/C (second compound 0.1 µM, first compound 1 µM): 64.5% | viability, T/C [9]: 105% | viability, T/C [10]: 99% | viability, T/C [11]: 101% | viability, T/C [12]: 98.6% | viability, T/C (second compound 0.316 µM, first compound 0.316 µM): 115% | viability, T/C (second compound 0.316 µM, first compound 1 µM): 60.5% | viability, T/C [13]: 111% | viability, T/C [14]: 96.2% | viability, T/C [15]: 96.4% | viability, T/C [16]: 102% | viability, T/C (second compound 1 µM, first compound 0.316 µM): 97.9% | viability, T/C (second compound 1 µM, first compound 1 µM): 78.2% | viability, T/C [17]: 112% | viability, T/C [18]: 103% | viability, T/C [19]: 94.9% | viability, T/C [20]: 107% | viability, T/C (second compound 3.16 µM, first compound 0.316 µM): 95.3% | viability, T/C (second compound 3.16 µM, first compound 1 µM): 69.6% | viability, T/C [21]: 104% | viability, T/C [22]: 121% | viability, T/C [23]: 115% | viability, T/C [24]: 119% | viability, T/C (second compound 10 µM, first compound 0.316 µM): 95.2% | viability, T/C (second compound 10 µM, first compound 1 µM): 68.9%
